Residue numbers refer to the chain shown, from its start. Activity calls are given as the source filed them. The calls are words filed in the database; no cut-off is given here.

Assay [1] deals with T1, Tyrosine-protein phosphatase non-receptor type 1 (Homo sapiens) (UniProt P18031).
T1 sequence (whole entry): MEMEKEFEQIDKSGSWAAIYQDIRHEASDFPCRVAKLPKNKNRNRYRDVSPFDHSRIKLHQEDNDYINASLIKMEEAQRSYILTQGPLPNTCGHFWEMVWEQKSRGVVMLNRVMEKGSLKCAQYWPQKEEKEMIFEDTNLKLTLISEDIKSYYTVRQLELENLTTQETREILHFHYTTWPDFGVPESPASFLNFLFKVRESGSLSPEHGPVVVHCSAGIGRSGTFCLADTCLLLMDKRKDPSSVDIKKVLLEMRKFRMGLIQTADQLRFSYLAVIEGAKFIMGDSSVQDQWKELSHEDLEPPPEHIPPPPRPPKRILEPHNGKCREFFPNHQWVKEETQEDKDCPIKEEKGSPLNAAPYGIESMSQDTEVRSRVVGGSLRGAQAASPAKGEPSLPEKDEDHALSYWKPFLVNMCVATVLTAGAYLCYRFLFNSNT
Briefly: Binding affinity to His6-tagged human wild-type PTP1B catalytic domain overexpressed in Escherichia coli BL21(DE3) cells at 100 uM using pNPP as substrate after 90 mins by SDS-PAGE analysis.

Assay [2] concerns T2, Tyrosine-protein phosphatase non-receptor type 1 (Homo sapiens), P18031 [P87C,A122C].
T2 sequence (whole entry): T1 sequence (whole entry) with P87C, A122C
The assay is described as follows: Binding affinity to allosterically sensitized His6-tagged human PTP1B catalytic domain P87C/A122C mutant overexpressed in Escherichia coli crude cell lysate incubated for 90 mins by SDS-PAGE and LC-MS/MS method.

Assay [3] has as its target Tyrosine-protein phosphatase non-receptor type 6 (Homo sapiens) (UniProt P29350). Briefly: Inhibition of allosterically sensitized mutant form of His6-tagged human SHP1 catalytic domain using pNPP as substrate after 120 mins by quenched phosphatase activity assay.
Assay [4] concerns the target T3, Tyrosine-protein phosphatase non-receptor type 1 (Homo sapiens, UniProt P18031, A122C/P87C). The assay is described as follows: Inhibition of allosterically sensitized His6-tagged human PTP1B catalytic domain P87C/A122C mutant using pNPP as substrate incubated for 90 mins by quenched phosphatase activity assay.
The target in assay [5] is T1, Tyrosine-protein phosphatase non-receptor type 1 (Homo sapiens). Briefly: Inhibition of His6-tagged human wild-type PTP1B catalytic domain overexpressed in Escherichia coli crude cell lysate using pNPP as substrate incubated for 90 mins by quenched phosphatase activity assay.
Assay [6] concerns T2, Tyrosine-protein phosphatase non-receptor type 1 (Homo sapiens), P18031 [P87C,A122C]. The assay is described as follows: Inhibition of allosterically sensitized His6-tagged human PTP1B catalytic domain P87C/A122C mutant at 2000 nM using pNPP as substrate incubated for =.
For assay [7] the test system is unchanged. Briefly: Inhibition of allosterically sensitized His6-tagged human PTP1B catalytic domain P87C/A122C mutant at 500 nM using DADEpYLIPQQG as substrate incubated for 90 mins by continuous phosphatase activity assay.
For assay [8] the test system is unchanged. Briefly: Binding affinity to allosterically sensitized His6-tagged human PTP1B catalytic domain P87C/A122C mutant overexpressed in Escherichia coli BL21(DE3) cells at 25 to 100 uM after 90 mins by SDS-PAGE and LC-MS/MS method.
Assay [9] has as its target T3, Tyrosine-protein phosphatase non-receptor type 1. The assay is described as follows: Inhibition of allosterically sensitized His6-tagged human PTP1B catalytic domain P87C/A122C mutant overexpressed in Escherichia coli crude cell lysate using pNPP as substrate incubated for 90 mins by quenched phosphatase activity assay.
Assay [10] deals with T1, Tyrosine-protein phosphatase non-receptor type 1 (Homo sapiens). Briefly: Inhibition of His6-tagged human wild-type PTP1B catalytic domain at 2000 nM using pNPP as substrate incubated for 90 mins by quenched phosphatase activity assay.
Assay [11] has as its system Tyrosine-protein phosphatase non-receptor type 7 (Homo sapiens), P35236 [UNDEFINED MUTATION]. Briefly: Inhibition of allosterically sensitized mutant form of His6-tagged human wild-type HePTP catalytic domain at 1.92 uM using pNPP as substrate incubated for 90 mins by quenched phosphatase activity assay.
Assay [12] has the same test system. Briefly: Inhibition of Inhibition of allosterically sensitized mutant form of His6-tagged […] human HePTP catalytic domain overexpressed in Escherichia coli BL21(DE3) cells at 25 uM using pNPP as substrate incubated for 90 mins by quenched phosphatase activity assay.
For assay [13], the system named is T4, Tyrosine-protein phosphatase non-receptor type 7 (Homo sapiens), P35236 [P171C,V205C].
T4 sequence (whole entry): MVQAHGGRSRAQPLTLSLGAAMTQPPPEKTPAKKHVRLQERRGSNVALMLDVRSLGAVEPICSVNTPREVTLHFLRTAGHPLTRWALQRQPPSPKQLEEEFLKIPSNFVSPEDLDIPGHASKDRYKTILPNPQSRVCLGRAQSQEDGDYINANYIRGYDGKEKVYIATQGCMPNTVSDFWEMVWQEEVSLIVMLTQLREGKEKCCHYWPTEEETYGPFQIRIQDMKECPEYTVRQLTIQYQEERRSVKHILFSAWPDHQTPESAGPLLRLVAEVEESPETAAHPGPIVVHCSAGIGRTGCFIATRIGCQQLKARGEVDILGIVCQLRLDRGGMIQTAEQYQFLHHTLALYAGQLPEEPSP
Briefly: Inhibition of allosterically sensitized mutant form of His6-tagged human HePTP catalytic domain overexpressed in Escherichia coli BL21(DE3) cells using pNPP as substrate incubated for 90 mins by quenched phosphatase activity assay.

Assay [14] shares this test system. The assay is described as follows: Binding affinity to allosterically sensitized mutant form of His6-tagged human HePTP catalytic domain overexpressed in Escherichia coli BL21(DE3) cells at 50 to 100 uM after 90 mins by SDS-PAGE analysis.

Tyrosine-protein phosphatase non-receptor type 7 (Homo sapiens), P35236 [UNDEFINED MUTATION], sequence (P35236 whole entry, looked up, stated change not applied, the tested form may be a part): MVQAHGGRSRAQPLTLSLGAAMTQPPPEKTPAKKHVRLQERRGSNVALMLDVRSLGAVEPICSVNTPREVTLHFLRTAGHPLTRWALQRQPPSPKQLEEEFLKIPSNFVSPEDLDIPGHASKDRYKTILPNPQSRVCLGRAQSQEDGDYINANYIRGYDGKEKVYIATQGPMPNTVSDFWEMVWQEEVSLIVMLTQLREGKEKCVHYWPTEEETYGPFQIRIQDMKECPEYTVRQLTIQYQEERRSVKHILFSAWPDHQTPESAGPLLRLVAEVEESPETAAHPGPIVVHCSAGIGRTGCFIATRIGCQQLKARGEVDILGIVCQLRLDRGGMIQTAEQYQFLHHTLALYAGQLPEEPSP
T3 sequence (P18031 whole entry P87C/A122C, the tested form may be a part): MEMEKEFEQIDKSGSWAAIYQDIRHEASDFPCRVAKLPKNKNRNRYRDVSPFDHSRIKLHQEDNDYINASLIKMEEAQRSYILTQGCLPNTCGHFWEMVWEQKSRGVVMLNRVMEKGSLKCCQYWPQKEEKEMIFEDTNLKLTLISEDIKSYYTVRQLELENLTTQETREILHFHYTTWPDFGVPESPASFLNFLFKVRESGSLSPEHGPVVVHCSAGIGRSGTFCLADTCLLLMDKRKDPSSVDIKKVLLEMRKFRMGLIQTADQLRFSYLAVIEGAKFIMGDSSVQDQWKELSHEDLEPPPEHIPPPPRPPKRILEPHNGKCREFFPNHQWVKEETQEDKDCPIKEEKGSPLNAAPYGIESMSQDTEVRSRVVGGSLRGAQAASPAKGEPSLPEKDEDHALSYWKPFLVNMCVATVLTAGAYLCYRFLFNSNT
Tyrosine-protein phosphatase non-receptor type 6 (Homo sapiens), sequence (P29350 whole entry, the tested form may be a part): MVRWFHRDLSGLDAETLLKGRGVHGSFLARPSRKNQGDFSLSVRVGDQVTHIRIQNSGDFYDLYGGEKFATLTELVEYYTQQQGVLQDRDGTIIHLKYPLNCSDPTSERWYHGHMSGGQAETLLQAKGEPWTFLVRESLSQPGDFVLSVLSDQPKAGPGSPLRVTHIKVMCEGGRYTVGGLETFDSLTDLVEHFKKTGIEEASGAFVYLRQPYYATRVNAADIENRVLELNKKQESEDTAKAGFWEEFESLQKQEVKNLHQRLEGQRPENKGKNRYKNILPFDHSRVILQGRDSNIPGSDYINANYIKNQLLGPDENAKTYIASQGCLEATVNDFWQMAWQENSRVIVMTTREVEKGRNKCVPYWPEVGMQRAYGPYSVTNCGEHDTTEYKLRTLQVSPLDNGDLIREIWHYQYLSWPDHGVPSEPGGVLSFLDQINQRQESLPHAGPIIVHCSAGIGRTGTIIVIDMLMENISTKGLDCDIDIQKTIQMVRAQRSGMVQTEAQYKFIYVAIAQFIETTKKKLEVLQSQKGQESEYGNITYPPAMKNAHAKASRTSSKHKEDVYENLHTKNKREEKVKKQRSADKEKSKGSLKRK

Consider `CC1(C)C(/C=C/C=C2/N(CCCCS(=O)(=O)O)c3ccc([As]4SCCS4)cc3C2(C)C)=[N+](CCCCS(=O)(=O)O)c2ccc([As]3SCCS3)cc21`, for which, in [1], the result was inactive. Besides, the Activity entry in [2] was “Dose-dependent effect”. The inhibition entry was “Dose-dependent effect” in assay [3] and 50% in assay [6]. Moreover, the IC50 in assay [4] and in assay [9] was 0.125 µM throughout. Besides, the inhibition entry in assay [5] and in [10] was “inactive” throughout. In addition, the inhibition result in assay [7] was “Active”. Also, in [8], the result was Active.
As for `O=C(O)c1ccccc1-c1c2ccc(=O)c([As]3SCCS3)c-2oc2c([As]3SCCS3)c(O)ccc12`, the inhibition in assay [11] is 50%; in assay [13] it was “Dose-dependent effect”. Further, in assay [12], the inhibition result is “Active”. The outcome in assay [14] was Active.

The record behind these values is ChEMBL document CHEMBL4118135, “Optimized allosteric inhibition of engineered protein tyrosine phosphatases with an expanded palette of biarsenical small molecules” (Bioorg Med Chem, 2018).
